# Test results: patent US12220463B2, “Quaternary ammonium cyclodextrin and preparation method and uses thereof, and silver nanoparticle-cyclodextrin complex and preparation method and uses thereof” (Hubei University of Chinese Medicine, priority 2022, dated 2025)
# Legend:
# [1] = tested on: Escherichia coli (E. coli); experiment: Inhibition zone assay of bacteriostatic activity (GB/T 39101-2020, punching method); assay type: cell-based; settings: FIG. 19, repeated three times
# Experimental: Preparation of a silver nanoparticle sample for control: 0.1 mol/L AgCl was dissolved in 16 mL of an ammonia solution at a mass concentration of 25% with continuous stirring, and an aqueous solution of 0.1 mol/L vitamin C was added dropwise. […] The solution was then filtered, and the precipitate was washed repeatedly with double-distilled water, dispersed in double-distilled water, and freeze-dried for 24 h to afford silver nanoparticles prepared from vitamin C.
# Determination of antibacterial activity of polypeptides according to GB/T 39101-2020: Inhibition zone assays in the inhibition zone method evaluate the bacteriostatic activity of test substances. The strain used is Escherichia coli (E. coli) in an ampicillin solution having a concentration of 1.5 mg/mL, using the punching method instead of the “Oxford cup” method to control the sampling areas.
# [2] = Inclusion rate of C-β-CD for cinnamaldehyde (UV absorbance at 287 nm); assay type: physicochemical; settings: saturated aqueous solution method, 45° C. 4 h, freeze-dried
# Experimental: 0.656 g the cationic β-cyclodextrin (C-β-CD) prepared in Example 1 was weighed and added with 10 mL distilled water until completely dissolution. An anhydrous ethanol solution containing 0.066 g cinnamaldehyde was added slowly. The mixture was magnetically stirred in a water bath at 45° C. for 4 h. After completion, the mixture was filtered with a 0.45 μm microporous membrane. The resulting solution was freeze-dried for 24 h to afford a cinnamaldehyde/C-β-CD inclusion complex.
# 10 mg analytically pure cinnamaldehyde was weighed and dissolved in anhydrous ethanol, and the volume was adjusted to 10 mL to prepare a 1000 mg/L stock solution. A proper amount of the stock solution was taken and diluted with anhydrous ethanol into a series of standard solutions at a concentration of 2, 4, 6, 8, and 10 mg/L. In the optimal absorption wavelength, the absorbance A of the above series of standard solutions was determined. […]
# 0.01 g of the C-β-CD inclusion complex of cinnamaldehyde was weighed and added into a 25 mL volumetric flask, added with anhydrous ethanol to dilute to the mark, and sonicated for 30 min. […] The absorbance A of the solution was determined at 287 nm and taken into the regression equation to calculate the cinnamaldehyde content in the inclusion complex (see the previous example for the conversion formula).
# [3] = Inclusion rate of C-β-CD for thymol (UV absorbance at 278 nm); assay type: physicochemical; settings: thymol/C-β-CD inclusion complex, 40° C. 2 h, freeze-dried
# Experimental: 0.656 g of the cationic β-cyclodextrin (C-β-CD) prepared in Example 1 was weighed and added with 10 mL distilled water until completely dissolution. An anhydrous ethanol solution containing 0.075 g thymol (2 mL in total) was added. The mixture was magnetically stirred in a water bath at 40° C. for 2 h. After completion, the mixture was filtered with a 0.45 μm microporous membrane. The resulting solution was freeze-dried for 24 h to afford a thymol/C-β-CD inclusion complex.
# 15 mg of analytically pure thymol was weighed and dissolved in anhydrous ethanol, and the volume was adjusted to 10 mL to prepare a 1500 mg/L stock solution. A proper amount of the stock solution was taken and diluted with anhydrous ethanol into a series of standard solutions at a concentration of 50, 40, 30, 20, and 10 mg/L. In the optimal absorption wavelength, an absorbance A of the above series of standard solutions was determined. A standard curve was drawn with a thymol concentration (mg/L) as an abscissa and A as an ordinate.
# 0.1 g of the thymol/C-β-CD inclusion complex as prepared above was weighed and added into a 25 mL volumetric flask, added with anhydrous ethanol to dilute to the mark, and sonicated for 30 min. […] The absorbance A of the solution at 278 nm was determined, and taken into the regression equation to calculate the thymol content in the inclusion complex. […]
Compound,bacteriostatic effect [1],inclusion rate for cinnamaldehyde [2] [%],inclusion rate for thymol [3] [%]
"O=[N+]([O-])[O-].[Ag+] [AgNO3, silver nitrate, reference compound]",weak bacteriostatic effect,,
cationic β-cyclodextrin [C-β-CD],no bacteriostatic activity,21.55,63.55
